Test results published in PubChem BioAssay (NCI).
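Step 1: Grow cells in 96-well plates. Step 2: Expose to compound for 48 hours at 5 concentrations. Step 3: Interpolate endpoints linearly; if unreached, use highest concentration. Definition used: TGI = concentration required for complete inhibition of growth.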

Experiments:
Assay in all cases: DTP human tumour cell line panel, 48 h
NCI-H460 lung = tested on: NCI-H460 lung
IGROV1 ovarian = tested on: IGROV1 ovarian
NCI-H226 lung = tested on: NCI-H226 lung
SF-295 CNS = tested on: SF-295 CNS
SR leukemia = tested on: SR leukemia
TK-10 renal = tested on: TK-10 renal
U251 CNS = tested on: U251 CNS
SNB-78 CNS = tested on: SNB-78 CNS
MOLT-4 leukemia = tested on: MOLT-4 leukemia
ACHN renal = tested on: ACHN renal
K-562 leukemia = tested on: K-562 leukemia
HCT-116 colon = tested on: HCT-116 colon
HT29 colon = tested on: HT29 colon
LOX IMVI melanoma = tested on: LOX IMVI melanoma
SNB-75 CNS = tested on: SNB-75 CNS
KM12 colon = tested on: KM12 colon
OVCAR-5 ovarian = tested on: OVCAR-5 ovarian
XF 498 CNS = tested on: XF 498 CNS
OVCAR-4 ovarian = tested on: OVCAR-4 ovarian
RXF 393 renal = tested on: RXF 393 renal
UO-31 renal = tested on: UO-31 renal
A549 NSCLC = tested on: A549 NSCLC
DLD-1 colon = tested on: DLD-1 colon
EKVX NSCLC = tested on: EKVX NSCLC
SNB-19 CNS = tested on: SNB-19 CNS
SF-268 CNS = tested on: SF-268 CNS
UACC-62 melanoma = tested on: UACC-62 melanoma
SK-MEL-5 melanoma = tested on: SK-MEL-5 melanoma
SK-OV-3 ovarian = tested on: SK-OV-3 ovarian
OVCAR-8 ovarian = tested on: OVCAR-8 ovarian
HOP-92 NSCLC = tested on: HOP-92 NSCLC
M14 melanoma = tested on: M14 melanoma
SN12C renal = tested on: SN12C renal
786-0 renal = tested on: 786-0 renal
SW-620 colon = tested on: SW-620 colon
OVCAR-3 ovarian = tested on: OVCAR-3 ovarian
M19-MEL melanoma = tested on: M19-MEL melanoma
DMS 114 small cell lung = tested on: DMS 114 small cell lung
NCI-H522 lung = tested on: NCI-H522 lung
SF-539 CNS = tested on: SF-539 CNS
COLO 205 colon = tested on: COLO 205 colon
DMS 273 small cell lung = tested on: DMS 273 small cell lung
CCRF-CEM leukemia = tested on: CCRF-CEM leukemia
NCI-H23 lung = tested on: NCI-H23 lung
CAKI-1 renal = tested on: CAKI-1 renal
SK-MEL-2 melanoma = tested on: SK-MEL-2 melanoma
HOP-62 NSCLC = tested on: HOP-62 NSCLC
HOP-18 NSCLC = tested on: HOP-18 NSCLC
SK-MEL-28 melanoma = tested on: SK-MEL-28 melanoma
UACC-257 melanoma = tested on: UACC-257 melanoma
KM20L2 colon = tested on: KM20L2 colon
MALME-3M melanoma = tested on: MALME-3M melanoma
HCT-15 colon = tested on: HCT-15 colon
HL-60(TB) leukemia = tested on: HL-60(TB) leukemia
A498 renal = tested on: A498 renal
HCC-2998 colon = tested on: HCC-2998 colon
RPMI-8226 leukemia = tested on: RPMI-8226 leukemia
LXFL 529 NSCLC = tested on: LXFL 529 NSCLC

Measured: TGI

O=c1c2cccnc2ncn1CCCN1CCCC1
not listed: HOP-18 NSCLC | SK-MEL-28 melanoma | UACC-257 melanoma | KM20L2 colon | MALME-3M melanoma | HCT-15 colon | HL-60(TB) leukemia | A498 renal | HCC-2998 colon | RPMI-8226 leukemia | LXFL 529 NSCLC
> 100 µM: all other assays above

COC(=O)CCC(=O)N1CC1C (centres undefined)
not listed: SNB-78 CNS
> 100 µM: all other assays above
